Results filed as inconclusive are left out. The source made the active and inactive calls.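 Rule for the calls: active = Wild-type ribosome reporter drop at least double the humanized mutant ribosome reporter drop, growth loss under a set limit; inconclusive = no clear call, values can overlap the other calls; inactive = the rest.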
System: E. coli wild-type GFP strain growth, fluorescence, 24 h
Experiment: growth inhibition of wild-type GFP E. coli, dose response, H69 mutant RFP, cherry-pick (AID 977621);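 note: wild-type GFP and H69 mutant RFP strains grown together 50/50 in each well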
Conditions: not given

SMILES | AC50
Cc1ccc(S(=O)(=O)Nc2ccccc2CNc2ccccn2)cc1 | > 100 µM (inactive)
CN(c1ccccc1)S(=O)(=O)c1cccc(NC(=O)CCN2C(=O)C3CCCCC3C2=O)c1 (stereo not drawn) | > 100 µM (inactive)
CCn1c2ccccc2c2cc(NC(=O)c3ccco3)ccc21 | > 100 µM (inactive)
COc1ccc(C)cc1NC(=O)c1nn(C)cc1Br | > 100 µM (inactive)
CCOc1ccccc1N1CCN(C(=O)CCCc2nc3ccccc3s2)CC1 | > 100 µM (inactive)
CCCc1c(C(=O)Nc2ccc(OC)cc2)cnn1-c1ccccc1 | > 100 µM (inactive)

Same assay, conditions: E. coli mixed culture, 24 h; measured here: total growth OD600, test 2

SMILES | AC50 [µM]
Cc1ccc(S(=O)(=O)Nc2ccccc2CNc2ccccn2)cc1 | 48.9
O=C(Nc1ccc(Br)cc1)c1cccnc1N1CCCCC1 | 45.7
O=C(NCc1ccccc1)c1ccc(-c2ccccc2F)o1 | 36.1
CCn1c2ccccc2c2cc(NC(=O)c3ccco3)ccc21 | 40
Cc1cccc(C)c1NC(=O)C1(C)CSCC(=O)N1CCOc1ccccc1 (stereo not drawn) | > 100
COc1ccc(C)cc1NC(=O)c1nn(C)cc1Br | 33.9
CCOc1ccccc1N1CCN(C(=O)CCCc2nc3ccccc3s2)CC1 | 37.2
COc1ccc(-c2nc(NC(C)=O)sc2-c2ccccc2)cc1 | 44.1
CCCc1c(C(=O)Nc2ccc(OC)cc2)cnn1-c1ccccc1 | 38.1

System: E. coli H69 humanized mutant ribosome RFP strain growth, fluorescence, 24 h
Experiment: as above
Conditions: test 2

SMILES | AC50 [µM]
Cc1ccc(S(=O)(=O)Nc2ccccc2CNc2ccccn2)cc1 | 50.6
O=C(Nc1ccc(Br)cc1)c1cccnc1N1CCCCC1 | > 100
CN(c1ccccc1)S(=O)(=O)c1cccc(NC(=O)CCN2C(=O)C3CCCCC3C2=O)c1 (stereo not drawn) | > 100
O=C(NCc1ccccc1)c1ccc(-c2ccccc2F)o1 | > 100
CCn1c2ccccc2c2cc(NC(=O)c3ccco3)ccc21 | > 100
Cc1cccc(C)c1NC(=O)C1(C)CSCC(=O)N1CCOc1ccccc1 (stereo not drawn) | > 100
COc1ccc(C)cc1NC(=O)c1nn(C)cc1Br | > 100
CCOc1ccccc1N1CCN(C(=O)CCCc2nc3ccccc3s2)CC1 | 43.7
COc1ccc(-c2nc(NC(C)=O)sc2-c2ccccc2)cc1 | 49.1
CCCc1c(C(=O)Nc2ccc(OC)cc2)cnn1-c1ccccc1 | > 100
CCOC(=O)C1CCCN(Cc2c(Cl)cccc2Cl)C1 (stereo not drawn) | 6.66
Cc1ccc(S(=O)(=O)N(C(=O)c2ccncc2)c2ccc(OC(=O)c3ccncc3)cc2)c(C)c1 | > 100
CCCCn1c(=O)[nH]c(=O)c2c1nc(-c1ccccc1F)n2Cc1ccccc1 | > 100
Cc1ccccc1CSc1nnc(-c2ccccn2)n1C | 28.3
Cc1noc2ncnc(SCc3ccc(C(F)(F)F)cc3)c12 | > 100
Cc1nn(C(C)(C)C)c(OC(=O)CC(C)C)c1S(=O)(=O)c1ccccc1 | 30.7
CCOc1ccc(NC(=O)CCc2nnc3ccc(N4CCC(C)CC4)nn23)cc1 | 51.2
COC(=O)c1sccc1NC(=O)Cn1nnc(-c2ccccc2C)n1 | 45.1
O=C(COC(=O)C1CC2C=CC1C2)Nc1ccc([N+](=O)[O-])cc1 (stereo not drawn) | > 100
COc1ccc(C2CC(=O)CCN2S(=O)(=O)c2ccc(C)cc2)cc1 (stereo not drawn) | 3.86
C[C@H]1CN([C@@H](C)CO)C(=O)CCCn2nncc2CO[C@@H]1CN(C)Cc1ccccc1C(F)(F)F | > 100
COC(=O)c1cc(C(=O)Cc2ccccc2)c[nH]1 | > 100
COc1ccc(CNC(=O)c2sc3nc4c(c(C(F)(F)F)c3c2N)CCC4)cc1OC | 13.9
O=C(CSCc1cnn(-c2ccccc2)c1-n1cccc1)NCc1cccnc1 | 2.13
COc1ccc2c(c1)c(C(C)=O)c(C)n2CCc1ccc(OC)c(OC)c1 | 51
FC(F)(F)c1ccc(Cl)c(-n2c(Cc3cccs3)n[nH]c2=S)c1 | > 100

SMILES | AC50 [µM]
COc1ccc(-c2csc(NC(=O)c3ccccc3S(C)(=O)=O)n2)cc1 | > 100
CSc1cccc(NC(=O)CCc2ccccc2)c1 | 20
CN1CCN(CC(=O)c2cc(C(C)(C)C)c(O)c(C(C)(C)C)c2)CC1 | > 100
COc1ccccc1-c1noc2ncnc(Nc3cccc(C)c3C)c12 | > 100
CSc1ccc(CN(C)C(=O)C(c2ccccc2)c2ccccc2)cc1 | 50.1
O=C(COC(=O)CCC(=O)c1ccc(F)cc1)NCCc1ccccc1 | > 100
CN1CCSc2ccc(C(=O)Nc3cccc(F)c3)cc21 | 0.837
CC1Sc2ccc(S(=O)(=O)NCc3ccccc3)cc2NC1=O (stereo not drawn) | > 100
Cc1ccccc1Nc1c(-c2cccnc2)nc2ccc(Br)cn12 | > 100
COC(C(=O)Nc1ccnn1C1CCN(Cc2ccc(Cl)s2)CC1)c1ccccc1 (stereo not drawn) | > 100
COc1cccc(CNC(=O)CCSCc2ccccc2F)c1 | > 100
O=C1CCCCC1Nc1ccc(Br)cc1 (stereo not drawn) | > 100
Oc1ccc(-c2csc(Nc3ncccn3)n2)cc1 | > 100
CCN(CC)CC(=O)Nc1sc2c(c1C(=O)c1ccccc1OC)CCC2 | 48.3
CCc1cccc(NC(=O)c2ccc3c(=O)n4c(nc3c2)CCCCC4)c1 | > 100
Cc1ccc(NC(=O)CN(C)S(=O)(=O)c2cccc3cccnc23)cc1F | > 100
COc1ccc(OC2C(=O)N(Cc3ccc4c(c3)OCO4)C2c2cccs2)cc1 (stereo not drawn) | 47.4
COc1ccc(OC)c(N(CC(=O)Nc2ccccc2F)S(=O)(=O)c2ccccc2)c1 | 4.66
NC(=O)c1ccccc1OCCOc1ccc(Br)cc1 | > 100
Cc1c(CCOC(=O)C23CC4CC(CC(C4)C2)C3)sc[n+]1Cc1ccccc1 | 4.41
O=C(CCNC(=O)c1ccccc1)Nc1ccc(Cl)c(S(=O)(=O)N2CCCCC2)c1 | 42.6
Cc1onc(-c2ccccc2Cl)c1C(=O)OCC(=O)c1ccccc1 | 45.6
COC(=O)c1ccc(CSc2nc3ccccc3s2)o1 | 39
O=C(NCCc1csc(-c2ccccc2)n1)c1ccccc1F | 49
CCCCNC(=O)C[C@@H]1C[C@@]2(C(=O)OC)CCCCC=C2N(Cc2ccccc2)C1=O | > 100
O=C(Nc1nnc(Cc2ccc(Cl)cc2)s1)c1ccncc1 | > 100

SMILES | AC50 [µM]
Fc1ccc(-c2nc3ccc(Cl)cn3c2Cc2cccc(Cl)c2)cc1 | > 100
Cc1ccccc1-c1nc(CS(=O)(=O)CC(=O)N2CCCCC2)c(C)o1 | > 100
COc1ccccc1NC(=O)CSc1ncc(CO)n1Cc1ccc(F)cc1 | > 100
CCc1c(N=O)c(-c2ccccc2)n(O)[n+]1[O-] | 6.29
O=C1N2c3ccccc3CCc3cccc(c32)C1(O)C(F)(F)F (stereo not drawn) | 43.6
CNC(=O)c1ccsc1NC(=O)c1ccc(S(=O)(=O)N2CCc3ccccc32)cc1 | 2.19
O=C(O)c1cc(-c2ccc(-c3ccc(F)cc3)o2)nc2ccccc12 | 39.6
Cc1ccc(Cl)cc1N1CCN(C(=O)c2ccc3nc[nH]c3c2)CC1 | 51.4
[O-][n+]1ccccc1/C=C/c1ccccc1 | > 100
CCOc1ccc(S(=O)(=O)N(C)c2ccc(OCC(=O)NCc3cccnc3)cc2)cc1 | > 100
O=S(=O)(NCc1ccc2c(c1)OCO2)c1ccc2c(c1)oc1ccccc12 | 52.3
O=C(CSc1nc2ccccc2n1S(=O)(=O)c1cccc([N+](=O)[O-])c1)NCCc1ccccc1 | > 100
O=C(c1ccc(-n2cccn2)cc1)N1CCc2ccccc2C1 | 52.2
O=C1c2ccccc2CSc2c(O)cccc21 | 45.9
CC(C)(C)N(Cc1ccccc1)C(=O)COC(=O)Cn1cnc2ccccc2c1=O | > 100
Cc1ccccc1-n1nnnc1SCCCC(=O)c1ccc(F)cc1 | 6.72
COc1ccc(C2CC(c3cccs3)=Nc3ccccc3S2)cc1 (stereo not drawn) | 1.44
Cn1c(CC2C(=O)Nc3ccc(Br)cc32)nc2ccccc2c1=O (stereo not drawn) | > 100
Cc1cc(C)c(OCCN(C)Cc2ccccc2)c(Br)c1 | > 100
C=CCNC(=O)c1ccccc1CCc1ccccc1 | > 100
Cc1ccc2c(N)c(C(=O)c3ccccc3)sc2n1 | 50.8
O=S(=O)(c1cccc(-c2nc3ccccc3s2)c1)N1CCCC1 | > 100
O=C(Nc1nc(-c2ccc3ccccc3c2)cs1)C1CCN(S(=O)(=O)c2cccs2)CC1 | > 100
CC(C)n1nnnc1C1c2ccccc2C(=O)N1CCOc1ccccc1 (stereo not drawn) | 0.989
CCOc1cc(/C=C(\CC(=O)O)c2nc3ccccc3s2)ccc1OC | > 100
O=C1c2ccccc2C(c2nnnn2C2CCCCC2)N1CCc1ccc(O)cc1 (stereo not drawn) | > 100
